Experimental data as given in US20230219912A1, “HALOGENATED BENZOTHIADIAZINES FOR THE TREATMENT OF CANCER” (BOARD OF REGENTS OF THE UNIVERSITY OF NEBRASKA, priority 2020, published 2023).
“Also recorded” adds a separate entry of the source. Read-outs that look alike come from different tables or passages of the source.

Columns and labels:
[1] = test system: VEGF-induced proliferation of HUVEC cells; experiment: VEGF-induced HUVEC proliferation, MTT assay; format: cell-based, human; conditions: for inhibition of VEGF-induced HUVEC proliferation (in words): 20 μM; for inhibition at 20 µM: Homo sapiens, read-out: % Inhibition of Proliferation
Protocol: The assay was performed as follows. Vascular endothelial growth factor (VEGF, Cat #SRP3182) was purchased from Sigma. […] Stock solutions of all compounds were prepared in DMSO and were serially diluted for cell culture treatment maintaining the final DMSO concentration at less than 1%. Cell proliferation of HUVECs was evaluated through the MTT (3-[4, 5-dimethylthiazol-2-yl]-2, 5-dimethyltetrazolium bromide) colorimetric assay, as previously described.^28 The HUVECs were seeded at a density of 10,000 cells/well in 24 well plates in serum-containing medium and cultured overnight. Cells were starved with 300 μL of assay media (0.1% BSA+0.1% FBS in basal medium) for 24 h. Then, cells were treated with 500 μL of assay medium (control group), VEGF (10 ng/mL, positive control group) or VEGF along with compounds (20 μM). After 48 h of culture, 50 μL of MTT stock (5 mg/mL in PBS) was added to each well and incubated for 2 h at 37° C. to allow the formation of dark blue formazan crystals in the metabolically active cells. The medium was removed, the cells were washed with PBS (pH 7.4), and 100 μL of acidified isopropanol (0.33 mL HCl in 100 mL isopropanol) was added to each well and incubated for 5 min with thorough agitation to solubilize the formazan crystals. An equal volume of the solution was transferred to a 96-well plate and the absorbance was immediately measured using a microplate reader at a wavelength of 570 nm.

[2] = test system: MDA-MB-468 triple negative breast cancer cells; experiment: MTS cytotoxicity assay in MDA-MB-468 triple negative breast cancer cells; format: cell-based; conditions: for effect on MDA-MB 468 TNBC cell viability: 10, 50 and 100 μM for 24, 48 and 72 hours, MTS; for IC50: Homo sapiens, MDA-MB-468, 72 hours, mean ± SD n = 3
Protocol: The assay was performed as follows.
Derivatives were dosed at 10, 50 and 100 μM for 24, 48 and 72 hours and cell viability measured by MTS assay (FIG. 5).

[3] = molecular target: T1, Mitochondrial respiratory complex II (Rattus norvegicus, UniProt P21913+Q641Z9+Q6PCT8+Q920L2); experiment: Mitochondrial respiratory complex II inhibition assay; format: biochemical; conditions: for inhibition at 100 µM: read-out: inhibition of CII; for IC50: isolated rat heart mitochondria, mean ±SD of n = 4, read-out: CII IC50
T1 construct: measured spectrophotometrically using isolated rat heart mitochondria; from tissue; host or cells: rat heart mitochondria / sub-mitochondrial particles
T1 sequence (Q920L2 35-656): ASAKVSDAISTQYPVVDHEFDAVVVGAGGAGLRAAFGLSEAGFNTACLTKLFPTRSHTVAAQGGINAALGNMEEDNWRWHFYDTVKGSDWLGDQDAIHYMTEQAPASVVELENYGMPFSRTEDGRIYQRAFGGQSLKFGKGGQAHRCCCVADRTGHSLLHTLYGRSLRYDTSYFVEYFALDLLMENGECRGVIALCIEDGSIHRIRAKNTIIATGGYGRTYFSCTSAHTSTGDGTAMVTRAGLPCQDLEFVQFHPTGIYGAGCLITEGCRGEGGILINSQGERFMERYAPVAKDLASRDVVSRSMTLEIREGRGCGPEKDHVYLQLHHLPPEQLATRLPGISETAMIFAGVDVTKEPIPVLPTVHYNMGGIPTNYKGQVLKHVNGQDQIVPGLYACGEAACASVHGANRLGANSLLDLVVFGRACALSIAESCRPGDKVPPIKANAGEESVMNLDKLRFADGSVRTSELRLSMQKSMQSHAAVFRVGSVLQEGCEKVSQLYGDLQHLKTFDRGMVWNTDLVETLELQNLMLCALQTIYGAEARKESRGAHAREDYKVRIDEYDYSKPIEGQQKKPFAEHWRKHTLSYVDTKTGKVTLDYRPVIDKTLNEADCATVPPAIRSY
T1 sequence (P21913 31-282): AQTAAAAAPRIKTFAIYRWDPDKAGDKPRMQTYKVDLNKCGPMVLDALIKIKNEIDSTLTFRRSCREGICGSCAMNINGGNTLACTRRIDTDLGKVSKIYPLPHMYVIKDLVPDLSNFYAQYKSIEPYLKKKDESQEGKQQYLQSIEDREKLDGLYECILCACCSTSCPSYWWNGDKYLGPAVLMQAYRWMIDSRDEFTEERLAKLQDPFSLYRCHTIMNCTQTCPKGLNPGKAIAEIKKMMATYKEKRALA
T1 sequence (Q641Z9 1-169): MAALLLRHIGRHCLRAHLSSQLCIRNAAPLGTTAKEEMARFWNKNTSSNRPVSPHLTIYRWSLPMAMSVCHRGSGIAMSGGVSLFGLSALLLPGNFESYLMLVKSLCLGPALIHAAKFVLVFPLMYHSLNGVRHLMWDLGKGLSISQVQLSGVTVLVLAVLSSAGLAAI
T1 sequence (Q6PCT8 57-159): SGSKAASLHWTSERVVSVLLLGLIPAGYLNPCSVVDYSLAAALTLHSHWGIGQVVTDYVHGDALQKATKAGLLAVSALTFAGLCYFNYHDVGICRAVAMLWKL
Protocol: The assay was performed as follows. Mitochondria were isolated either from fresh rat hearts or by differential centrifugation in sucrose-based buffer as previously described.^24 Complex II enzymatic activity was determined spectrophotometrically as the rate of succinate-driven, co-enzyme Q2-linked reduction of dichlorophenolindophenol (DCPIP).^49 Mitochondria or sub-mitochondrial particles were incubated in phosphate buffer (pH 7.4) containing 40 μM DCPIP, 1 mM KCN, 10 μM rotenone, and 50 μM co-enzyme Q2. The rate of reduction of DCPIP to DCPIPH2 was followed at […] (ε=21,000 M-1). Varying amounts of succinate and inhibitors were used to determine an IC50 value. At the end of each run thenoyltrifluoroacetone (1 mM) was added and the residual TTFA-insensitive rate subtracted.

[4] = test system: 22Rv1 prostate cancer cells; experiment: MTS cytotoxicity assay in 22Rv1 prostate cancer cells; conditions: for cytotoxicity at 100 µM: Homo sapiens, 22Rv1, 48 h, read-out: reduction of 22Rv1 cell viability
Protocol: The assay was performed as follows. To determine the cell growth inhibition ability of the synthesized compounds the (3-(4,5-dimethylthiazol-2-yl)-5-(3-carboxymethoxyphenyl)-2-(4-sulfophenyl)-2H-tetrazolium) (MTS) assay used according to the manufacturer's recommended protocol. Stock solutions of the synthesized compounds were prepared in DMSO. Cells were seeded at a density of 1×10^5 cells in 96-well plates. After 24 hours, cells were treated at the indicated concentrations of test compounds, limiting the final DMSO concentration to less than 1%. After incubation at 37° C. in an environment of 5% CO2 for 48-72 hours, 10 μL of MTS reagent (CellTiter 96© AQueous One Solution Reagent) was added to each well and incubated at the above mentioned conditions for 2-4 hr. Absorbance was recorded at 490 nm on a BioTek Synergy Mx multimode plate reader and the viability of cells were plotted as percentage of controls.

[5] = HUVEC, 48 h, 20 μM compound, VEGF 10 ng/mL, HUVEC, 48 h, relative to VEGF treated cells, mean ± SEM n = 3
[6] = 100 μM, relative to DMSO control

Compound | inhibition of VEGF-induced HUVEC proliferation (in words) ([1]; VEGF 10 ng/mL) | inhibition at 20 µM [1, 5] | effect on MDA-MB 468 TNBC cell viability [2] | inhibition at 100 µM [3, 6] | cytotoxicity at 100 µM [4] | also measured
O=S1(=O)NC(=S)Nc2ccc(F)cc21 [Compound 12a, 7-fluoro-3-thioxo-3,4-dihydro-2H-1,2,4-benzothiadiazine 1,1-dioxide] | no appreciable inhibition | 50 ± 35% | no reduction of cell viability |  |  | 
O=S1(=O)NC(=S)Nc2cc(Cl)ccc21 [Compound 12b, 6-chloro-3-thioxo-3,4-dihydro-2H-1,2,4-benzothiadiazine 1,1-dioxide] |  | 0% |  | 81% | 12% | IC50 [3]: 11.9 µM
O=S1(=O)NC(=S)Nc2ccc(Br)cc21 [Compound 12c, 7-bromo-3-thioxo-3,4-dihydro-2H-1,2,4-benzothiadiazine 1,1-dioxide] |  |  |  | 55% | 16% | IC50 [3]: 37 µM
CC(C)C(C)NC1=NS(=O)(=O)c2cc(F)ccc2N1 (centres unmarked) [Compound 15a, 7-fluoro-3-((3-methylbutan-2-yl)amino)-4H-benzo[e][1,2,4]thiadiazine 1,1-dioxide] | no appreciable inhibition | 76 ± 18% | substantially less active |  |  | 
O=S1(=O)N=C(NCCc2ccccc2)Nc2ccc(Br)cc21 [Compound 18c, 7-bromo-3-(phenethylamino)-4H-benzo[e][1,2,4]thiadiazine 1,1-dioxide] |  |  | potent activity |  |  | inhibition at 20 µM ([1]; HUVEC, 48 h): 47 ± 24%
COc1ccc(CNC2=NS(=O)(=O)c3cc(Br)ccc3N2)cc1 [Compound 20c, 7-bromo-3-((4-methoxybenzyl)amino)-4H-benzo[e][1,2,4]thiadiazine 1,1-dioxide] |  |  | potent activity | 64% | 41% | IC50 [3]: 79.7 µM
COc1ccc(CNC2=NS(=O)(=O)c3ccccc3N2)cc1 [Compound 20d, 3-((4-methoxybenzyl)amino)-4H-benzo[e][1,2,4]thiadiazine 1,1-dioxide] |  |  | no reduction of cell viability |  |  | 
O=S1(=O)N=C(NC2CCCC2)Nc2cc(Cl)ccc21 [Compound 22b, 6-chloro-3-(cyclopentylamino)-4H-benzo[e][1,2,4]thiadiazine 1,1-dioxide] |  |  |  |  | ~35% | IC50 [2]: 148 ± 26.3 µM
O=S1(=O)N=C(NCCCc2ccccc2)Nc2ccc(F)cc21 [Compound 23a, 7-fluoro-3-((3-phenylpropyl)amino)-4H-benzo[e][1,2,4]thiadiazine 1,1-dioxide] | no appreciable inhibition | 0% | almost complete amelioration of cell viability | 14% |  | % Inhibition of Proliferation ([1]; 20 μM compound, VEGF 10 ng/mL, HUVEC, 48 h, relative to VEGF treated cells, mean ± SEM n = 3): inactive
O=S1(=O)N=C(NCCCc2ccccc2)Nc2ccc(Br)cc21 [Compound 23c, 7-bromo-3-((3-phenylpropyl)amino)-4H-benzo[e][1,2,4]thiadiazine 1,1-dioxide] |  | 24 ± 41% |  | 46% | 42% | inhibition of CII [3, 6]: 47%
CC(NC1=NS(=O)(=O)c2cc(F)ccc2N1)c1ccccc1 (centres unmarked) [Compound 24a, 7-fluoro-3-((1-phenylethyl)amino)-4H-benzo[e][1,2,4]thiadiazine 1,1-dioxide] |  |  |  | 22% | 34% | 
CC(NC1=NS(=O)(=O)c2ccc(Cl)cc2N1)c1ccccc1 (centres unmarked) [Compound 24b, 6-chloro-3-((1-phenylethyl)amino)-4H-benzo[e][1,2,4]thiadiazine 1,1-dioxide] |  | 38 ± 33% |  | 51% | 50% | IC50 [3]: 89 µM
CC(NC1=NS(=O)(=O)c2cc(Br)ccc2N1)c1ccccc1 (centres unmarked) [Compound 24c, 7-bromo-3-((1-phenylethyl)amino)-4H-benzo[e][1,2,4]thiadiazine 1,1-dioxide] |  |  |  | 55% | 70% | IC50 [3]: 79.8 µM
O=S1(=O)N=C(NCc2ccc(C(F)(F)F)cc2)Nc2ccc(Br)cc21 [Compound 25c, 7-bromo-3-((4-(trifluoromethyl)benzyl)amino)-4H-benzo[e][1,2,4]thiadiazine 1,1-dioxide] |  |  |  |  | 34% | 
COc1ccccc1CNC1=NS(=O)(=O)c2cc(F)ccc2N1 [Compound 26a, 7-fluoro-3-((2-methoxybenzyl)amino)-4H-benzo[e][1,2,4]thiadiazine 1,1-dioxide] | no appreciable inhibition | 29 ± 33% | almost complete amelioration of cell viability | 37% |  | 
O=S1(=O)N=C(NCc2ccc(OC(F)(F)F)cc2)Nc2ccccc21 [Compound 30d, 3-((4-(trifluoromethoxy)benzyl)amino)-4H-benzo[e][1,2,4]thiadiazine 1,1-dioxide] |  |  |  |  | ~30% | 
C=CCNC1=NS(=O)(=O)c2cc(F)ccc2N1 [Compound 32a, 3-(allylamino)-7-fluoro-4H-benzo[e][1,2,4]thiadiazine 1,1-dioxide] |  |  |  | 38% | 24% | 
O=S1(=O)N=C(NCCc2c[nH]c3ccccc23)Nc2ccc(F)cc21 [Compound 36a, 3-((2-(1H-indol-3-yl)ethyl)amino)-7-fluoro-4H-benzo[e][1,2,4]thiadiazine 1,1-dioxide] | no appreciable inhibition | 41 ± 26% | almost complete amelioration of cell viability | 17% | 30% | 
O=S1(=O)N=C(NCCc2ccc(Cl)cc2)Nc2ccc(F)cc21 [Compound 37a, 3-((4-chlorophenethyl)amino)-7-fluoro-4H-benzo[e][1,2,4]thiadiazine 1,1-dioxide] |  |  |  | 34% |  | reduction of 22Rv1 cell viability ([4]; 100 μM, 48 hrs treatment, MTS): inactive
CC(C)NC1=NS(=O)(=O)c2ccccc2N1C [Compound 43d, 3-(isopropylamino)-4-methyl-4H-benzo[e][1,2,4]thiadiazine 1,1-dioxide] |  |  | no reduction of cell viability |  |  | 
COc1ccc(CNC2=NS(=O)(=O)c3cc(Cl)ccc3N2)cc1 [Compound 56e, 7-Chloro-3-((4-methoxybenzyl)amino)-4H-benzo[e][1,2,4]thiadiazine 1,1-dioxide] | suppressed HUVEC proliferation; also recorded: enhanced activity | 91 ± 15% |  |  |  | IC50 [2]: 62.9 ± 4.2 µM
Cc1ccc(CNC2=NS(=O)(=O)c3cc(Cl)ccc3N2)cc1 [Compound 61e, 7-Chloro-3-((4-methylbenzyl)amino)-4H-benzo[e][1,2,4]thiadiazine 1,1-dioxide] | suppressed HUVEC proliferation; also recorded: enhanced activity | 119 ± 10% |  |  |  | IC50 [2]: 43.1 µM
